This passage reports IC50 results from US11820766B2, “Monoacylglycerol lipase modulators” (Janssen Pharmaceutica NV, priority 2018, dated 2023).

The first assay concerns the target T1, human MGL from HeLa cells (Homo sapiens, UniProt Q99685).
T1 construct: combining endogenously expressed MGL from HeLa cells with test compounds; endogenous in cells; host or cells: HeLa cells / cell homogenates
T1 sequence (Q99685 1-303): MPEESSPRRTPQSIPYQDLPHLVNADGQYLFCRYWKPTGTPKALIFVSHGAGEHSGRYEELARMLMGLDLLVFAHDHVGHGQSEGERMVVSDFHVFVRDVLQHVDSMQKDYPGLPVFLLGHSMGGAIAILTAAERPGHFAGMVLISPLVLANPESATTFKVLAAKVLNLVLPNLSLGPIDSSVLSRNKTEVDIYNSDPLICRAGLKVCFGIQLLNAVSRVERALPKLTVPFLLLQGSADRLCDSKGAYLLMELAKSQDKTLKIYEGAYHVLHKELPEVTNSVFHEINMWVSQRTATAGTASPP
Description: In vitro MGL activity assay: [glycerol-1,3-3H]-oleyl glycerol cleavage by MGL from HeLa cells. Format: biochemical. Conditions: 300 nM [Glycerol-1,3-3H]-oleyl glycerol, one hour. An excerpt: MGL is the predominant hydrolase in HeLa cells/cell homogenates.
`C[C@H]1c2nn(C)c(-c3ccc(Cl)c(F)c3)c2CCN1C(=O)c1ccc2ncccc2c1` [Example 504, [(7S)-3-(4-Chloro-3-fluoro-phenyl)-2,7-dimethyl-5,7-dihydro-4H-pyrazolo[3,4-c]pyridin-6-yl]-(6-quinolyl)methanone] gave an IC50 of 25.3 nM.

`Cc1ccc2nc(C)c(C(=O)N3CCc4c(nn(C)c4-c4cc(F)c(F)c(F)c4)[C@@H]3C)n2c1` [Example 405, (2,6-Dimethylimidazo[1,2-a]pyridin-3-yl)-[(7S)-2,7-dimethyl-3-(3,4,5-trifluorophenyl)-5,7-dihydro-4H-pyrazolo[3,4-c]pyridin-6-yl]methanone] displayed an IC50 of 280 nM.

The compound `C[C@H]1c2nn(C)c(-c3cc(F)c(F)c(F)c3)c2CCN1C(=O)c1cccc2[nH]c(=O)oc12` [Example 587, 7-[(7S)-2,7-Dimethyl-3-(3,4,5-trifluorophenyl)-5,7-dihydro-4H-pyrazolo[3,4-c]pyridine-6-carbonyl]-3H-1,3-benzoxazol-2-one] had an IC50 of 13.4 nM.

The compound `C[C@H]1c2nn(C)c(-c3cc(F)c(F)c(F)c3)c2CCN1C(=O)c1ccc2c(c1)OCCC2` [Example 582, Chroman-7-yl-[(7S)-2,7-dimethyl-3-(3,4,5-trifluorophenyl)-5,7-dihydro-4H-pyrazolo[3,4-c]pyridin-6-yl]methanone] had an IC50 of 7.52 nM.

`COc1ccnc(C(=O)N2CCc3c(nn(C)c3-c3cc(F)cc(OC(F)F)c3)[C@@H]2C)c1Cl` [Example 612, (3-Chloro-4-methoxy-2-pyridyl)-[(7S)-3-[3-(difluoromethoxy)-5-fluoro-phenyl]-2,7-dimethyl-5,7-dihydro-4H-pyrazolo[3,4-c]pyridin-6-yl]methanone]: it took 29.8 nM to reach half-maximal inhibition (IC50).

Take `C[C@H]1c2nn(C)c(-c3cc(F)c(F)c(F)c3)c2CCN1C(=O)c1ccc2c(ccc[n+]2[O-])c1` [Example 516, [(7S)-2,7-Dimethyl-3-(3,4,5-trifluorophenyl)-5,7-dihydro-4H-pyrazolo[3,4-c]pyridin-6-yl]-(1-oxidoquinolin-1-ium-6-yl)methanone]: the IC50 is 141 nM.

For `C[C@H]1c2nn(C)c(-c3cc(F)c(F)c(F)c3)c2CCN1C(=O)c1ccnc2c1OCCC2` [Example 568, 3,4-Dihydro-2H-pyrano[3,2-b]pyridin-8-yl-[(7S)-2,7-dimethyl-3-(3,4,5-trifluorophenyl)-5,7-dihydro-4H-pyrazolo[3,4-c]pyridin-6-yl]methanone], it took 9.68 nM to reach half-maximal inhibition (IC50).

Regarding `Cc1cc(F)cc(-c2c3c(nn2C)[C@H](C)N(C(=O)c2ccc4ncccc4c2)CC3)c1` [Example 511, [(7S)-3-(3-Fluoro-5-methyl-phenyl)-2,7-dimethyl-5,7-dihydro-4H-pyrazolo[3,4-c]pyridin-6-yl]-(6-quinolyl)methanone], 6.58 nM corresponded to half-maximal inhibition (IC50).

`C[C@H]1c2nn(C)c(-c3cc(F)c(F)c(F)c3)c2CCN1C(=O)c1cccc2c1CCOC2` [Example 576, [(7S)-2,7-Dimethyl-3-(3,4,5-trifluorophenyl)-5,7-dihydro-4H-pyrazolo[3,4-c]pyridin-6-yl]-isochroman-5-yl-methanone] returned an IC50 of 18.9 nM.

Take `C[C@H]1c2nn(C)c(-c3ccc(C(F)F)nc3)c2CCN1C(=O)c1ccc2ncccc2c1` [Example 521, [(7S)-3-[6-(Difluoromethyl)-3-pyridyl]-2,7-dimethyl-5,7-dihydro-4H-pyrazolo[3,4-c]pyridin-6-yl]-(6-quinolyl)methanone]: the midpoint of inhibition, the IC50, lay at 766 nM.

Consider `Cc1cnc2cccc(C(=O)N3CCc4c(nn(C)c4-c4cc(F)c(F)c(F)c4)[C@@H]3C)c2n1` [Example 475, [(7S)-2,7-Dimethyl-3-(3,4,5-trifluorophenyl)-5,7-dihydro-4H-pyrazolo[3,4-c]pyridin-6-yl]-(3-methylquinoxalin-5-yl)methanone], for which the IC50 was determined as 73.6 nM.

As for `C[C@H]1c2nn(C)c(-c3cc(F)c(F)c(F)c3)c2CCN1C(=O)c1ccc2c(c1)CCOC2` [Example 578, [(7S)-2,7-Dimethyl-3-(3,4,5-trifluorophenyl)-5,7-dihydro-4H-pyrazolo[3,4-c]pyridin-6-yl]-isochroman-6-yl-methanone], 27.4 nM corresponded to half-maximal inhibition (IC50).

In the case of `C[C@H]1c2nn(C)c(-c3cc(F)c(F)c(F)c3)c2CCN1C(=O)c1nccc2cc[nH]c12` [Example 376, [(7S)-2,7-Dimethyl-3-(3,4,5-trifluorophenyl)-5,7-dihydro-4H-pyrazolo[3,4-c]pyridin-6-yl]-(1H-pyrrolo[2,3-c]pyridin-7-yl)methanone], the IC50 was 599 nM.

Regarding `C[C@H]1c2nn(C)c(-c3cc(F)c(F)c(F)c3)c2CCN1C(=O)c1ccc2nccn2c1` [Example 391, [(7S)-2,7-Dimethyl-3-(3,4,5-trifluorophenyl)-5,7-dihydro-4H-pyrazolo[3,4-c]pyridin-6-yl]-imidazo[1,2-a]pyridin-6-yl-methanone], the IC50 was 103 nM.

The assay is the same for the next values; noted with them: 300 nM [Glycerol-1,3-3H]-oleyl glycerol, one hour incubation.
Take `Cc1cccc2cc(C(=O)N3CCc4c(nn(C)c4-c4ccccc4)C3)[nH]c12` [Example 50, (7-Methyl-1H-indol-2-yl)(2-methyl-3-phenyl-2,4,5,7-tetrahydro-6H-pyrazolo[3,4-c]pyridin-6-yl)methanone]: inhibition was half-maximal at 2000 nM (IC50).

For `C[C@H]1c2nn(C)c(-c3cc(F)c(F)c(F)c3)c2CCN1C(=O)c1cccc(-c2cc[nH]n2)c1` [Example 270, [(7S)-2,7-Dimethyl-3-(3,4,5-trifluorophenyl)-5,7-dihydro-4H-pyrazolo[3,4-c]pyridin-6-yl]-[3-(1H-pyrazol-3-yl)phenyl]methanone], inhibition was half-maximal at 9.07 nM (IC50).

For `Cn1nc2c(c1-c1ccccc1)CCN(C(=O)c1nccc3ccccc13)C2` [Example 88, Isoquinolin-1-yl(2-methyl-3-phenyl-2,4,5,7-tetrahydro-6H-pyrazolo[3,4-c]pyridin-6-yl)methanone], the IC50 came out at 47.3 nM.

The compound `COc1ccnc(C(=O)N2CCc3c(nn(C)c3-c3cc(F)c(F)c(F)c3)[C@@H]2C)c1` [Example 309, [(7S)-2,7-Dimethyl-3-(3,4,5-trifluorophenyl)-5,7-dihydro-4H-pyrazolo[3,4-c]pyridin-6-yl]-(4-methoxy-2-pyridyl)methanone] showed an IC50 of 219 nM.

On to `C[C@H]1c2nn(C)c(-c3cc(F)cc(F)c3)c2CCN1C(=O)c1cccc(OCCF)c1F` [Example 141, (S)-(3-(3,5-Difluorophenyl)-2,7-dimethyl-2,4,5,7-tetrahydro-6H-pyrazolo[3,4-c]pyridin-6-yl)(2-fluoro-3-(2-fluoroethoxy)phenyl)methanone], for which the IC50 was 1.72 nM.

Take `CCc1c(OC)cccc1C(=O)N1CCc2c(nn(C)c2-c2ccccc2)C1` [Example 8, (2-Ethyl-3-methoxyphenyl)(2-methyl-3-phenyl-2,4,5,7-tetrahydro-6H-pyrazolo[3,4-c]pyridin-6-yl)methanone]: the IC50 is 1840 nM.

Take `Cn1nc2c(c1-c1ccccc1)CCN(C(=O)c1c[nH]c3cccc(Cl)c13)C2` [Example 49, (4-Chloro-1H-indol-3-yl)(2-methyl-3-phenyl-2,4,5,7-tetrahydro-6H-pyrazolo[3,4-c]pyridin-6-yl)methanone]: inhibition was half-maximal at 461 nM (IC50).

For `Cn1nc2c(c1-c1ccccc1)CCN(C(=O)c1cccc3nccnc13)C2` [Example 97, (2-Methyl-3-phenyl-2,4,5,7-tetrahydro-6H-pyrazolo[3,4-c]pyridin-6-yl)(quinoxalin-5-yl)methanone], it took 4260 nM to reach half-maximal inhibition (IC50).

In the case of `Cn1nc2c(c1-c1ccccc1)CCN(C(=O)c1cccc3cccnc13)C2` [Example 93, (2-Methyl-3-phenyl-2,4,5,7-tetrahydro-6H-pyrazolo[3,4-c]pyridin-6-yl)(quinolin-8-yl)methanone], half-maximal inhibition (IC50) was put at 126 nM.

Turning to `Cc1cc(C(=O)N2CCc3c(nn(C)c3-c3cc(F)c(F)c(F)c3)[C@@H]2C)c2ccccc2n1` [Example 239, (S)-(2,7-Dimethyl-3-(3,4,5-trifluorophenyl)-2,4,5,7-tetrahydro-6H-pyrazolo[3,4-c]pyridin-6-yl)(2-methylquinolin-4-yl)methanone], the IC50 was 3.74 nM.

`C[C@H]1c2nn(C)c(-c3cc(F)c(F)c(F)c3)c2CCN1C(=O)c1ncn(-c2ccccn2)n1` [Example 323, [(7S)-2,7-Dimethyl-3-(3,4,5-trifluorophenyl)-5,7-dihydro-4H-pyrazolo[3,4-c]pyridin-6-yl]-[1-(2-pyridyl)-1,2,4-triazol-3-yl]methanone] displayed a 50% inhibitory concentration (IC50) of 65.6 nM.

For the compound `COc1ccc(C(=O)N2CCc3c(nn(C)c3-c3cc(C)cc(F)c3)[C@@H]2C)cc1` [Example 258, [(7S)-3-(3-Fluoro-5-methyl-phenyl)-2,7-dimethyl-5,7-dihydro-4H-pyrazolo[3,4-c]pyridin-6-yl]-(4-methoxyphenyl)methanone], 68.5 nM corresponded to half-maximal inhibition (IC50).

On to `C[C@H]1c2nn(C)c(-c3cc(F)cc(F)c3)c2CCN1C(=O)c1ccc(OCCF)cc1` [Example 138, (S)-(3-(3,5-Difluorophenyl)-2,7-dimethyl-2,4,5,7-tetrahydro-6H-pyrazolo[3,4-c]pyridin-6-yl)(4-(2-fluoroethoxy)phenyl)methanone], for which the IC50 worked out at 39.5 nM.

`C[C@H]1c2nn(C)c(-c3cc(F)cc(F)c3)c2CCN1C(=O)c1cccc(OCCF)c1` [Example 139, (S)-(3-(3,5-Difluorophenyl)-2,7-dimethyl-2,4,5,7-tetrahydro-6H-pyrazolo[3,4-c]pyridin-6-yl)(3-(2-fluoroethoxy)phenyl)methanone] returned an IC50 of 9.8 nM.

In the case of `C[C@H]1c2nn(C)c(-c3cccc(Cl)c3)c2CCN1C(=O)c1cnc2ccoc2c1` (single isomer, unassigned) [Example 128], 26.3 nM corresponded to half-maximal inhibition (IC50).

By IC50 is commonly meant the concentration needed to halve the response being measured. Low readings indicate greater potency in that assay, high ones weaker potency in that assay.
